Results taken from patent US20080070240A2, “COMPOSITION FOR DEAMINATING DNA AND METHOD OF DETECTING METHYLATED DNA” (Toyo Boseki Kabushiki Kaisha, priority 2004, published 2008).

Experiment: Measurement of solubility of sulfites in distilled water
Settings: for Concentration, Calculated value: calculated from mass and molecular weight; for Concentration, Measured value (sulfite concentration, solubility): method 0-A
Protocol: To a cuvette for measuring absorbance (1×1×4 cm, manufactured by Hitachi High-Technologies Co.), 3 ml of 0.1 N hydrochloric acid (manufactured by Wako Pure Chemical Co., Ltd.) was added. To the cuvette, 30 μl of a sulfite solution diluted with distilled water was added, the cuvette was covered with parafilm, and inverted 3 times to mix the solutions.
Then, the mass, volume and pH at that time were measured. In addition, with regard to each solution, the sulfite concentration was measured in accordance with the method 0-A described above.
With regard to the concentration in the table, the calculated value represents the sulfite concentration (M (mol/l)) calculated from the mass and the molecular weight of each dissolved sulfite. In addition, the measured value represents the sulfite concentration (M) measured in accordance with the method 0-A described above.

Compound | pH of saturated solution (30° C.) | Concentration, Calculated value (30° C.) [M] | Concentration, Measured value (sulfite concentration, solubility) (30° C.) [M] | pH of saturated solution (70° C.) | Concentration, Calculated value (70° C.) [M] | solubility (30° C., distilled water, saturated) [mg/mL]
O=S([O-])O.[Na+] [Sodium bisulfite, sodium bisulfite] | 4.4 | 5.2 | 5.0 | 4.5 | 6.5 | –
O=S([O-])[O-].[Na+].[Na+] [Sodium sulfite, sodium sulfite] | 10.3 | – | – | 10.5 | – | 200
ammonium sulfite monohydrate | – | – | 3.5 | – | – | –
